SMILES strings stand for the structures.

The target in one test is Rho kinase 1 (ROCK-I) (Homo sapiens, UniProt Q13464). In words: In vitro Rho kinase inhibitory activity assay (ADP-Glo), Rho kinase 1. As to conditions: 10 μM ATP, 25° C., expressed as range of activity. The format is biochemical. The method in brief: (§1)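 Kinase activity is measured as ADP production (ADP-Glo, luminescence) after 1 hour at 25 °C with 10 μM ATP and 2.5 μM Myelin Basic Protein, following 30 min enzyme–compound preincubation. Buffer is 40 mM Tris pH7.5, 20 mM MgCl2, 0.1 mg/ml BSA, 50 μM DTT.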
On the technique in general: ADP-Glo first removes unused ATP, then detects ADP through luciferase.

The target of another test is Rho kinase 2 (ROCK-II) (Homo sapiens, UniProt O75116). Description: In vitro Rho kinase inhibitory activity assay (ADP-Glo), Rho kinase 2. The format is biochemical. The note with it: 10 μM ATP, 25° C., expressed as range of activity. Put shortly: as §1
Sequence of Rho kinase 2 (ROCK-II) (O75116 whole entry): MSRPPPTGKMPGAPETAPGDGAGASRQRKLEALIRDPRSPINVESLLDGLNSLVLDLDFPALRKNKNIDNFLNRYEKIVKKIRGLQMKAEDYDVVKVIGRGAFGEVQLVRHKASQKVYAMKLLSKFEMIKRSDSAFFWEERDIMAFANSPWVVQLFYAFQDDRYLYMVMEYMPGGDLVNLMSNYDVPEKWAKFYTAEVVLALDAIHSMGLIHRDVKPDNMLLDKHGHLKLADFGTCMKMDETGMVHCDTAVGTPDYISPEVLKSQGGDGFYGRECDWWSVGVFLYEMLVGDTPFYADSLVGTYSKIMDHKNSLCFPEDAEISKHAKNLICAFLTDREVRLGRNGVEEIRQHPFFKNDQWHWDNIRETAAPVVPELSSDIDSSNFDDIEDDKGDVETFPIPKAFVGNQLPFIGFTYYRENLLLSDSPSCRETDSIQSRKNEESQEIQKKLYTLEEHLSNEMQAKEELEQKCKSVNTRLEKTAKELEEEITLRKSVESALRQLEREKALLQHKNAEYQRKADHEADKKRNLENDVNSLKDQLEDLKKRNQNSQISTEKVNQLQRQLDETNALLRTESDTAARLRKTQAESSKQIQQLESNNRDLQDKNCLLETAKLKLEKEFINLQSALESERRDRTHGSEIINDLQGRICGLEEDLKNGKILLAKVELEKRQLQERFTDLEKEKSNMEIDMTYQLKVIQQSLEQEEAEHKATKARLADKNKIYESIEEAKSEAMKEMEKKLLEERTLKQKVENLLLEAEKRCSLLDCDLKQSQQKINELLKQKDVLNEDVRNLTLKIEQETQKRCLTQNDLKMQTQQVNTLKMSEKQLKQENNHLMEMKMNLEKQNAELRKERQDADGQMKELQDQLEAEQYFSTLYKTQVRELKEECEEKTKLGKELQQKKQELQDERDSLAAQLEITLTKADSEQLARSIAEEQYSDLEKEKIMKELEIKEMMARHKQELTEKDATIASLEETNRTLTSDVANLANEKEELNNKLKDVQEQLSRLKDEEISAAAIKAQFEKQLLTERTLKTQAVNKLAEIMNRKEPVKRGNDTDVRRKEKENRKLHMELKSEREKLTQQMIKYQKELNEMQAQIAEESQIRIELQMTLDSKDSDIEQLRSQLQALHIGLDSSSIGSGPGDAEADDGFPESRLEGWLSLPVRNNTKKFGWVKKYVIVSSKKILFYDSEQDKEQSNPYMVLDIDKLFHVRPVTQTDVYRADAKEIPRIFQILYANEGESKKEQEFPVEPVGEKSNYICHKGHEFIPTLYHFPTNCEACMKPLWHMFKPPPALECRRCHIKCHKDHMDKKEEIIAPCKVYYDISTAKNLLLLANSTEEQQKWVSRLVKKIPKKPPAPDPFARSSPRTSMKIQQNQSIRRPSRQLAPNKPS

Sequence of Rho kinase 1 (ROCK-I) (Q13464 whole entry): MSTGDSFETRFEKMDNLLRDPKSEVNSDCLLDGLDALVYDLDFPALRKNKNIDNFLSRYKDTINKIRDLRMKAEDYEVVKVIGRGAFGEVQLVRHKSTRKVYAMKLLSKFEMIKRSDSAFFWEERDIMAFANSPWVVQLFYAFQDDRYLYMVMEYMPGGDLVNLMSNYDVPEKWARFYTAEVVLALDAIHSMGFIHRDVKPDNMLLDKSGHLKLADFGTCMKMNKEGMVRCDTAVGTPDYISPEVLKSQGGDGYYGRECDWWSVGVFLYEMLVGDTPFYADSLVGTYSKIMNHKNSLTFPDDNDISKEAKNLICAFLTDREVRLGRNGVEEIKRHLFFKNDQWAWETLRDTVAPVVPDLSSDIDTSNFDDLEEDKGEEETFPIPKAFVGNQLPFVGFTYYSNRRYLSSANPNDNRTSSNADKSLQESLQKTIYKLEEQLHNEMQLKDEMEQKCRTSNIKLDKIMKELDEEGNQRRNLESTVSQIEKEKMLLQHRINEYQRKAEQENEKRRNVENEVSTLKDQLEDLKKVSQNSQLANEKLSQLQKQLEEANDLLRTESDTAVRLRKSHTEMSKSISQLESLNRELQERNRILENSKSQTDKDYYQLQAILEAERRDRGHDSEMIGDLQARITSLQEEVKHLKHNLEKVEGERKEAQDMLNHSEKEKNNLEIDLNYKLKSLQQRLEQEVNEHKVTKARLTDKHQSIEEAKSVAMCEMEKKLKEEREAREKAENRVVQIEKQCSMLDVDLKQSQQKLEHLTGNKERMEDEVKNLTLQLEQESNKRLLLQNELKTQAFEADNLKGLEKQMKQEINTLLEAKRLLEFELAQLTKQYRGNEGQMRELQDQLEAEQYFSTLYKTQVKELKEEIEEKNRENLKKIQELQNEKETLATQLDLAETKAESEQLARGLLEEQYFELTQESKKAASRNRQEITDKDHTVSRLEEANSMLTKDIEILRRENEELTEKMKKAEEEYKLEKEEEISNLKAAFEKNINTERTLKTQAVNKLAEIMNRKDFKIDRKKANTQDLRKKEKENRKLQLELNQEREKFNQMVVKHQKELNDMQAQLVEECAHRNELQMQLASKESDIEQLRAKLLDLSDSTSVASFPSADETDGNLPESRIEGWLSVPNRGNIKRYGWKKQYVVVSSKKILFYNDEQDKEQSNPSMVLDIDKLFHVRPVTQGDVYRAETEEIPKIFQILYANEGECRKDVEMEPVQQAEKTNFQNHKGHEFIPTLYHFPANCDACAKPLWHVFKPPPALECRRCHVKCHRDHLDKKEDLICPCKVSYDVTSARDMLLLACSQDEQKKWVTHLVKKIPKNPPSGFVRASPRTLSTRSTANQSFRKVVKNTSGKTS

Turning to `Cc1c[nH]c2nccc(Oc3ccc(CC(N)C(=O)N4CCN(Cc5ccc(F)cc5)CC4)cc3F)c12` (stereo not shown) [Example 74, 2-amino-3-(3-fluoro-4-((3-methyl-1H-pyrrolo[2,3-b]pyridin-4-yl)oxy)phenyl)-1-(4-(4-fluorobenzyl)piperazin-1-yl)propan-1-one], the Ki on Rho kinase 1 (ROCK-I) and at Rho kinase 2 (ROCK-II) was less than 3 nM each time.

With `Cc1c[nH]c2nccc(Oc3ccc(C[C@H](N)C(=O)N4CCN(S(=O)(=O)c5ccccc5)CC4)cc3F)c12` [Example 22, (S)-2-amino-3-(3-fluoro-4-((3-methyl-1H-pyrrolo[2,3-b]pyridin-4-yl)oxy)phenyl)-1-(4-(phenylsulfonyl)piperazin-1-yl)propan-1-one], the inhibitory constant (Ki) on Rho kinase 1 (ROCK-I) and at Rho kinase 2 (ROCK-II) was less than 3 nM in each case.

Turning to `Cc1c[nH]c2nccc(Oc3ccc(C[C@H](N)C(=O)N4CCNCC4)cc3F)c12` [Example 152, (S)-2-amino-3-(3-fluoro-4-((3-methyl-1H-pyrrolo[2,3-b]pyridin-4-yl)oxy)phenyl)-1-(piperazin-1-yl)propan-1-one], the Ki on Rho kinase 1 (ROCK-I) and on Rho kinase 2 (ROCK-II) was less than 3 nM each time.

On to `Cc1c[nH]c2nccc(Oc3ccc(CC(N)C(=O)N4CCc5ccncc5C4)cc3F)c12` (stereo not shown) [Example 67, 2-amino-1-(3,4-dihydro-2,7-naphthyridin-2(1H)-yl)-3-(3-fluoro-4-((3-methyl-1H-pyrrolo[2,3-b]pyridin-4-yl)oxy)phenyl)propan-1-one], for which the Ki at Rho kinase 1 (ROCK-I) and on Rho kinase 2 (ROCK-II) was less than 3 nM each time.

In the case of `Cc1c[nH]c2nccc(Oc3ccc(CC(N)C(=O)N4CCCCC4)cc3F)c12` (stereo not shown) [Example 77, 2-amino-3-(3-fluoro-4-((3-methyl-1H-pyrrolo[2,3-b]pyridin-4-yl)oxy)phenyl)-1-(piperidin-1-yl)propan-1-one], the Ki on Rho kinase 1 (ROCK-I) and on Rho kinase 2 (ROCK-II) was less than 3 nM in each case.

As to `CN(C(=O)[C@H](N)Cc1ccc(Oc2ccnc3[nH]ccc23)cc1)C1CCCCC1` [Example 102, (R)-3-(4-((1H-pyrrolo[2,3-b]pyridin-4-yl)oxy)phenyl)-2-amino-N-eyclohexyl-N-methylpropanamide], the Ki at Rho kinase 1 (ROCK-I) and on Rho kinase 2 (ROCK-II) was more than 30 nM in each case.

Take `Cc1c[nH]c2nccc(Oc3ccc(C[C@H](N)C(=O)N4C[C@H]5CN(C)C[C@H]5C4)cc3F)c12` [Example 30, (S)-2-amino-3-(3-fluoro-4-((3-methyl-1H-pyrrolo[2,3-b]pyridin-4-yl)oxy)phenyl)-1-((3aR,6aS)-5-methylhexahydropyrrolo[3,4-c]pyrrol-2(1H)-yl)propan-1-one]: the inhibition constant Ki on Rho kinase 1 (ROCK-I) and on Rho kinase 2 (ROCK-II) was less than 3 nM in each case.

Regarding `CC(N)(Cc1ccc(Oc2ccnc3[nH]ccc23)cc1)C(=O)NC1CCCCC1` (stereo not shown) [Example 150, 3-(4-((1H-pyrrolo[2,3-b]pyridin-4-yl)oxy)phenyl)-2-amino-N-cyclohexyl-2-methylpropanamide], the Ki at Rho kinase 1 (ROCK-I) and on Rho kinase 2 (ROCK-II) was 3 to 30 nM throughout.

Consider `CN1CCC(NC(=O)[C@@H](N)Cc2ccc(Oc3ccnc4[nH]cc(-c5ccccc5)c34)c(F)c2)CC1` [Example 204, (S)-2-amino-3-(3-fluoro-4-((3-phenyl-1H-pyrrolo[2,3-b]pyridin-4-yl)oxy)phenyl)-N-(1-methylpiperidin-4-yl)propanamide], for which the Ki at Rho kinase 1 (ROCK-I) and at Rho kinase 2 (ROCK-II) was less than 3 nM each time.

In the case of `Cc1c[nH]c2nccc(Oc3ccc(C[C@H](N)C(=O)N4CCN(C)C(c5ccccc5)C4)cc3F)c12` (mixture of isomers) [Example 6, (2S)-2-amino-3-(3-fluoro-4-((3-methyl-1H-pyrrolo[2,3-b]pyridin-4-yl)oxy)phenyl)-1-(4-methyl-3-phenylpiperazin-1-yl)propan-1-one], the Ki at Rho kinase 1 (ROCK-I) and at Rho kinase 2 (ROCK-II) was less than 3 nM each time.

`Cc1c[nH]c2nccc(Oc3ccc(C[C@H](N)C(=O)N4CCN(C(=O)C5CC5)CC4)cc3F)c12` [Example 170, (S)-2-amino-1-(4-(cyclopropanecarbonyl)piperazin-1-yl)-3-(3-fluoro-4-((3-methyl-1H-pyrrolo[2,3-b]pyridin-4-yl)oxy)phenyl)propan-1-one]: the inhibition constant (Ki) on Rho kinase 1 (ROCK-I) and at Rho kinase 2 (ROCK-II) was less than 3 nM in each case.

For the compound `Cc1cccc(CN2CCN(C(=O)C(N)Cc3ccc(Oc4ccnc5[nH]cc(C)c45)c(F)c3)CC2)c1` (stereo not shown) [Example 73, 2-amino-3-(3-fluoro-4-((3-methyl-1H-pyrrolo[2,3-b]pyridin-4-yl)oxy)phenyl)-1-(4-(3-methylbenzyl)piperazin-1-yl)propan-1-one], the Ki at Rho kinase 1 (ROCK-I) and on Rho kinase 2 (ROCK-II) was less than 3 nM in each case.

Take `O=C(NC(Cc1ccc(Oc2ccnc3[nH]ccc23)cc1)C(=O)NC1CCCCC1)C1CCNC1` (stereo not shown) [Example 180, N-(3-(4-((1H-pyrrolo[2,3-b]pyridin-4-yl)oxy)phenyl)-1-(cyclohexylamino)-1-oxopropan-2-yl)pyrrolidine-3-carboxamide]: the Ki at Rho kinase 1 (ROCK-I) and at Rho kinase 2 (ROCK-II) was 3 to 30 nM in each case.

On to `Cc1c[nH]c2nccc(Oc3ccc(C[C@H](N)C(=O)N4CC=C(c5ccccc5)CC4)cc3F)c12` [Example 21, (S)-2-amino-3-(3-fluoro-4-((3-methyl-1H-pyrrolo[2,3-b]pyridin-4-yl)oxy)phenyl)-1-(4-phenyl-5,6-dihydropyridin-1(2H)-yl)propan-1-one], for which the Ki on Rho kinase 1 (ROCK-I) and at Rho kinase 2 (ROCK-II) was less than 3 nM each time.

As to `Cc1c[nH]c2nccc(Oc3ccc(C[C@H](N)C(=O)N4CCN(Cc5cnccn5)CC4)cc3F)c12` [Example 155, (S)-2-amino-3-(3-fluoro-4-((3-methyl-1H-pyrrolo[2,3-b]pyridin-4-yl)oxy)phenyl)-1-(4-(pyrazin-2-ylmethyl)piperazin-1-yl)propan-1-one], the Ki at Rho kinase 1 (ROCK-I) and at Rho kinase 2 (ROCK-II) was less than 3 nM throughout.

With `N[C@@H](Cc1ccc(Oc2ccnc3[nH]ccc23)cc1)C(=O)NC1CCOCC1` [Example 99, (S)-3-(4-((1H-pyrrolo[2,3-b]pyridin-4-yl)oxy)phenyl)-2-amino-N-(tetrahydro-2H-pyran-4-yl)propanamide], the Ki on Rho kinase 1 (ROCK-I) and on Rho kinase 2 (ROCK-II) was 3 to 30 nM throughout.

As to `CN(CC1CCCCC1)C(=O)[C@H](N)Cc1ccc(Oc2ccnc3[nH]ccc23)cc1` [Example 143, (R)-3-(4-((1H-pyrrolo[2,3-b]pyridin-4-yl)oxy)phenyl)-2-amino-N-(cyclohexylmethyl)-N-methylpropanamide], the Ki on Rho kinase 1 (ROCK-I) and at Rho kinase 2 (ROCK-II) was more than 30 nM in each case.

Take `N[C@@H](Cc1ccc(Oc2ccnc3[nH]cc(CO)c23)c(F)c1)C(=O)NC1CCCCC1` [Example 208, (S)-2-amino-N-cyclohexyl-3-(3-fluoro-4-((3-(hydroxymethyl)-1H-pyrrolo[2,3-b]pyridin-4-yl)oxy)phenyl)-propanamide]: the Ki on Rho kinase 1 (ROCK-I) and on Rho kinase 2 (ROCK-II) was less than 3 nM throughout.

Take `Cc1c[nH]c2nccc(Oc3ccc(C[C@H](N)C(=O)N4CCN(Cc5cccnc5)CC4)cc3F)c12` [Example 28, (S)-2-amino-3-(3-fluoro-4-((3-methyl-1H-pyrrolo[2,3-b]pyridin-4-yl)oxy)phenyl)-1-(4-(pyridin-3-ylmethyl)piperazin-1-yl)propan-1-one]: the Ki at Rho kinase 1 (ROCK-I) and on Rho kinase 2 (ROCK-II) was less than 3 nM throughout.

As for `N#Cc1c[nH]c2ncnc(Oc3ccc(C[C@H](N)C(=O)N4CCN(Cc5ccccc5)CC4)cc3F)c12` [Example 130, (S)-4-(4-(2-amino-3-(4-benzylpiperazin-1-yl)-3-oxopropyl)-2-fluorophenoxy)-7H-pyrrolo[2,3-d]pyrimidine-5-carbonitrile], the Ki on Rho kinase 1 (ROCK-I) and on Rho kinase 2 (ROCK-II) was less than 3 nM throughout.

As a reminder, the Ki is a measure of affinity in units of concentration, obtained from inhibition or displacement. A high value points to lower affinity.

(Values after patent US10501461B2, “Tyrosine amide derivatives as Rho-kinase inhibitors” (CHIESI FARMACEUTICI S.P.A., priority 2017, dated 2019).)
